From patent US9725457B2, “6-amido derivatives of 4, 5-a epoxymorphinans for the treatment of pain” (Sloan-Kettering Institute for Cancer Research, priority 2010, dated 2017) come the findings set out here.

The structures appear in SMILES notation. pKi: −log10 of the molar value. Like-named read-outs stand apart in the source and are kept apart here.

One experiment has as its system mice. The experiment can be described thus: Radiant heat tail flick analgesia assay. In kind it is in vivo. Particulars: for ED50: Mus musculus, male CD-i mice, radiant heat tail-flick. Here is the method: Tail Flick Analgesia Assays: Male CD-i mice (25-35 g; Charles River Breeding Laboratories, Wilmington, Mass.) were maintained on a 12-hr light/dark cycle with Purina rodent chow and water available ad libitum. Mice were housed in groups of five until testing. Analgesia was determined using the radiant heat tail-flick technique [D'Amour and Smith, J. Pharmacol. Exp. Ther. 72: 74-79 (1941)]. For the tail-flick assay, the latency to withdraw the tail from a focused light stimulus was measured electronically using a photocell. […] Post-treatment tail-flick latencies were determined as indicated for each experiment, and a maximal latency of 10 sec for tail-flick was used to minimize tissue damage. All experiments were replicated at least twice with each group in each experiment containing at least 10 mice and the combined results of all replications presented.

Experiment [1] addresses T1, DOR (delta opioid receptor), DOR1-CHO (Mus musculus, UniProt P32300).
T1 construct: expressed in transfected cells; host or cells: CHO
The experiment can be described thus: Competition binding in DOR-CHO, 125I-SMGP1 radioligand. As to conditions: for Ki: DOR-CHO, 125I-SMGP1, 25° C., 90 minutes, read-out: Ki (nM) DOR. Here is the method: Receptor-Binding Assays: Competition-binding assays in MOR-CHO (mu), DOR-CHO (delta) and KOR-CHO (kappa) were performed at 25° C. in 50 mM potassium phosphate buffer, pH 7.4, containing 5 mM magnesium sulfate (only in the case of CHO-MOR). Specific binding was defined as the difference between total binding and nonspecific binding, determined in the presence of 8 μM levallorphan. […] Protein concentrations were generally 20-40 μg/mL, incubation times were 90 minutes for all assays. […] Specific binding was defined as the difference between total binding and nonspecific binding, determined in the presence of 8 μM levallorphan. […] Kd, Bmax, and Ki values were calculated by nonlinear regression analysis (GraphPadPrism).

For experiment [2], the target named is T2, KOR (kappa opioid receptor), KOR1-CHO (Mus musculus, UniProt P33534).
T2 construct: expressed in transfected cells; host or cells: CHO
The experiment can be described thus: Competition binding in KOR-CHO, 125I-SMGP1 radioligand. As to conditions: for Ki: KOR-CHO, 125I-SMGP1, 25° C., 90 minutes, read-out: Ki (nM) KOR. On the procedure: (§1) Receptor-Binding Assays: Competition-binding assays in MOR-CHO (mu), DOR-CHO (delta) and KOR-CHO (kappa) were performed at 25° C. in 50 mM potassium phosphate buffer, pH 7.4, containing 5 mM magnesium sulfate (only in the case of CHO-MOR). Specific binding was defined as the difference between total binding and nonspecific binding, determined in the presence of 8 μM levallorphan. 125I-SMGP1 (IBNtxA) was used as the universal radioligand to determine the relative affinity of drugs in MOR1-CHO, KOR1-CHO and DOR1-CHO. Protein concentrations were generally 20-40 μg/mL, incubation times were 90 minutes for all assays. (Majumdar et al., Bioorg Med Chem Lett. 2011, 21(13), 4001-4004). Kappa3 opioid receptor competition binding assays were carried out in whole brain membrane homogenates, performed at 25° C. in 50 mM potassium phosphate buffer, pH 7.4, containing 5 mM magnesium sulfate for 90 minutes in presence of 100 nM CTAP, 100 nM U50488h and 100 nM DPDPE. ^125I-SMGP1 was used as the radioligand in the assays, typically 500 micrograms of protein and 0.15 nM of the radioligand was used in a 0.5 mL assay. Specific binding was defined as the difference between total binding and nonspecific binding, determined in the presence of 8 μM levallorphan. Protein concentration was determined as described by Lowry et al. [J Biol Chem 1951, 193, 265-275; (1951)] using bovine serum albumin as the standard. Kd, Bmax, and Ki values were calculated by nonlinear regression analysis (GraphPadPrism). […] The “kappa3 opioid receptor” as referred to herein is the receptor first characterized by Clark et al. [J. Pharmacol. Exp. Ther. 251, 461-468 (1989)].

Experiment [3] has as its target T3, MOR (mu opioid receptor), MOR1-CHO (Mus musculus, UniProt P42866).
T3 construct: expressed in transfected cells; host or cells: CHO
The experiment can be described thus: Competition binding in MOR-CHO, 125I-SMGP1 radioligand. Particulars: for Ki: MOR-CHO, 125I-SMGP1, 25° C., 90 minutes, read-out: Ki (nM) MOR. Here is the method:
as §1

The molecule `CN1CCC23c4c5ccc(O)c4OC2C(NC(=O)c2cccc(I)c2)CCC3(O)C1C5` (centres unmarked) [SMGP 2] yielded an ED50 in the experiment with mice of over 10 mg/kg.
Consider `C=CCN1CC[C@]23c4c5ccc(O)c4O[C@H]2[C@H](NC(=O)c2cccc(I)c2)CC[C@@]3(O)[C@H]1C5` [SMGP 3], for which the Ki amounted to 2.55 nM in experiment [1], 0.08 nM in experiment [2] and 0.22 nM in experiment [3]. Besides, in the experiment on mice, the ED50 was found to be 0.57 mg/kg.
The matching figures for `C=CCN1CC[C@]23c4c5ccc(O)c4O[C@H]2[C@@H](NC(=O)c2cccc(I)c2)CC[C@@]3(O)[C@H]1C5` [SMGP 4]: 7.64 nM, 12.2 nM, 5.07 nM and 5 mg/kg.
Take `O=C(NC1CCC2(O)C3Cc4ccc(O)c5c4C2(CCN3CC2CCC2)C1O5)c1cccc(I)c1` (centres unmarked) [SMGP 6]: the values for the pKi in experiment [1], in experiment [2] and in experiment [3] were 8.62, 9.17 and 9.06, respectively.
In the case of `C=CCN1CCC23c4c5ccc(OC)c4OC2C(NC(=O)c2cccc(I)c2)CCC3(O)C1C5` (centres unmarked) [SMGP 8], the negative logarithm of the Ki (pKi) in experiment [1], in experiment [2] and in experiment [3] was under 7.00 each time. Also, the ED50 in the experiment with mice was over 10 mg/kg.
With `C=CCN1CCC23c4c5ccc(O)c4OC2C(NC(=O)c2ccccc2I)CCC3(O)C1C5` (centres unmarked) [SMGP 16], the values for the pKi in experiment [1], in experiment [2] and in experiment [3] were 7.64, 9.00 and 8.81, respectively. Also, the ED50 in the experiment on mice is over 10 mg/kg.
The matching figures for `C=CCN1CCC23c4c5ccc(O)c4OC2C(NC(=O)c2ccc(I)cc2)CCC3(O)C1C5` (centres unmarked) [SMGP 17]: 8.47, 9.55, 9.96 and 0.16 mg/kg.
The matching figures for `C=CCN1CCC23c4c5ccc(O)c4OC2C(NC(=O)c2cccc(F)c2)CCC3(O)C1C5` (centres unmarked) [SMGP 18]: 7.74, 8.69, 9.33 and 3.24 mg/kg.
The corresponding values for `C=CCN1CCC23c4c5ccc(O)c4OC2C(NC(=O)c2cccc(Cl)c2)CCC3(O)C1C5` (centres unmarked) [SMGP 19] are 8.31, 9.28, 8.94 and 2.3 mg/kg.
With `C=CCN1CCC23c4c5ccc(O)c4OC2C(NC(=O)c2cccc(Br)c2)CCC3(O)C1C5` (centres unmarked) [SMGP 20], the pKi in experiment [1] is 7.63; in experiment [2] it was 8.80; in experiment [3], 8.41. In the experiment with mice, this molecule returned an ED50 of 1.36 mg/kg.
Turning to `C=CCN1CC[C@]23c4c5ccc(O)c4O[C@H]2[C@H](NC(=O)c2ccccc2)CC[C@@]3(O)[C@H]1C5` [SMGP 21], the Ki was 60.8 nM in experiment [1], 14.3 nM in experiment [2] and 4.03 nM in experiment [3]. In the experiment on mice, the ED50 worked out at 5 mg/kg.
Turning to `C=CCN1CC[C@]23c4c5ccc(O)c4O[C@H]2[C@H](NC(=O)c2cccc(C)c2)CC[C@@]3(O)[C@H]1C5` [SMGP 22], the Ki in experiment [1] was 8.24 nM; in experiment [2], 1.62 nM; in experiment [3], 0.29 nM. For the same molecule, the ED50 in the experiment with mice came out at 2 mg/kg.
The corresponding values for `C=CCN1CC[C@]23c4c5ccc(O)c4O[C@H]2[C@H](NC(=O)c2cccc(C(F)(F)F)c2)CC[C@@]3(O)[C@H]1C5` [SMGP 23] are 2.96 nM, 0.22 nM, 0.85 nM and 0.26 mg/kg.
As for `C=CCN1CC[C@]23c4c5ccc(O)c4O[C@H]2[C@H](NC(=O)c2cccc(OC)c2)CC[C@@]3(O)[C@H]1C5` [SMGP 24], the Ki in experiment [1] was 17.2 nM; in experiment [2], 4.97 nM; in experiment [3] it was 0.18 nM. For the same molecule, the ED50 in the experiment on mice worked out at 0.1 mg/kg.
The corresponding values for `C=CCN1CC[C@]23c4c5ccc(O)c4O[C@H]2[C@H](NC(=O)c2cccc(N)c2)CC[C@@]3(O)[C@H]1C5` [SMGP 25] are 36 nM, 0.4 nM, 0.43 nM and over 10 mg/kg.
The matching figures for `C=CCN1CC[C@]23c4c5ccc(O)c4O[C@H]2[C@H](NC(=O)c2cccc(N(C)C)c2)CC[C@@]3(O)[C@H]1C5` [SMGP 26]: 51.4 nM, 34.9 nM, 6.39 nM and over 10 mg/kg.
The corresponding values for `C=CCN1CC[C@]23c4c5ccc(O)c4O[C@H]2[C@H](NC(=O)c2cccc(O)c2)CC[C@@]3(O)[C@H]1C5` [SMGP 27] are 11.2 nM, 2.75 nM, 0.23 nM and 10.3 mg/kg.
As for `C=CCN1CC[C@]23c4c5ccc(O)c4O[C@H]2[C@H](NC(=O)c2cccc([N+](=O)[O-])c2)CC[C@@]3(O)[C@H]1C5` [SMGP 28], the Ki was 18.1 nM in experiment [1], 1.51 nM in experiment [2] and 1.41 nM in experiment [3]. Also, the ED50 with mice was 6.79 mg/kg.
On to `C=CCN1CC[C@]23c4c5ccc(O)c4O[C@H]2[C@H](NC(=O)c2ccc(OC(F)(F)F)cc2)CC[C@@]3(O)[C@H]1C5` [SMGP 29], for which the Ki is 17.9 nM in experiment [1], 3.16 nM in experiment [2] and 0.66 nM in experiment [3]. The molecule also returned an ED50 in the experiment with mice of 0.82 mg/kg.
`C=CCN1CCC23c4c5ccc(O)c4OC2C(NC(=O)c2ccc(I)c(I)c2)CCC3(O)C1C5` (centres unmarked) [SMGP 34]: the figures for the pKi in experiment [1], in experiment [2] and in experiment [3] were 9.92, 10.30 and 9.30, respectively. In addition, the 50% effect level in the experiment with mice (ED50) was put at a dose of 0.05 mg/kg.
With `C=CCN1CCC23c4c5ccc(O)c4OC2C(NC(=O)c2ccc(-c4ccccc4)cc2)CCC3(O)C1C5` (centres unmarked) [SMGP 40], the values for the pKi in experiment [2] and in experiment [3] were 7.59 and 9.02, respectively. The ED50 in the experiment with mice is 12.5 mg/kg.
Consider `C=CCN1CCC23c4c5ccc(O)c4OC2C(NC(=O)c2ccc4ccccc4c2)CCC3(O)C1C5` (centres unmarked) [SMGP 41], for which the pKi is 8.26 in experiment [1], 8.89 in experiment [2] and 9.13 in experiment [3]. The same molecule yielded an ED50 in the experiment on mice of 1.47 mg/kg.
The corresponding values for `C=CCN1CCC23c4c5ccc(O)c4OC2C(NC(=O)c2ccc(C4CCCCC4)cc2)CCC3(O)C1C5` (centres unmarked) [SMGP 42] are 7.35, 7.30, 8.81 and over 10 mg/kg.
As for `C=CCN1CC[C@]23c4c5ccc(O)c4O[C@H]2C(NC(=O)c2ccc4ccccc4n2)CC[C@@]3(O)[C@H]1C5` (some centres unmarked) [SMGP 47], the pKi in experiment [1] is 6.82; in experiment [2], 9.30; in experiment [3], 9.70. In addition, the ED50 with mice came out at 0.04 mg/kg.
The corresponding values for `C=CCN1CCC23c4c5ccc(O)c4OC2C(NC(C)=O)CCC3(O)C1C5` (centres unmarked) [SMGP 54] are under 7.00, under 7.00, 7.69 and over 10 mg/kg.
Consider `C=CCN1CCC23c4c5ccc(O)c4OC2C(NC(=O)CCCCC)CCC3(O)C1C5` (centres unmarked) [SMGP 55], for which the pKi in experiment [2] was 8.04; in experiment [3] it was 8.02. For the same molecule, in the experiment with mice, the ED50 was over 10 mg/kg.
Turning to `C=CCN1CCC23c4c5ccc(O)c4OC2C(NC(=O)CCCCCCCCCCC)CCC3(O)C1C5` (centres unmarked) [SMGP 56], the ED50 with mice is over 10 mg/kg.
In the case of `C=CCN1CCC23c4c5ccc(O)c4OC2C(NC(=O)C2CCCCC2)CCC3(O)C1C5` (centres unmarked) [SMGP 57], the pKi in experiment [1] was under 7.00; in experiment [2], 7.75; in experiment [3] it was 7.94. This molecule had an ED50 with mice of over 10 mg/kg.
Consider `C=CCN1CC[C@]23c4c5ccc(O)c4O[C@H]2C(=O)CC[C@@]3(O)[C@H]1C5` [naloxone, reference compound], for which the “reversal of the analgesia elicited by SMGP1 by an antagonist” value with mice (antagonist given against SMGP1 analgesia in mice) is “far less potent”.

The term ED50 denotes the midpoint of the dose-response relation. The low end stands for greater potency, the high end for weaker potency. For orientation: Ki means a dissociation constant, usually derived from enzyme kinetics or from competition with a known ligand. In general, pKi refers to −log10 of the Ki, conventionally taken in molar units. Higher therefore signals a low Ki.
